In EP1983049B1, “Peptides binding to the Lck-SH3 and Hck-SH3 domains” (Forschungszentrum Jülich GmbH, priority 2005, dated 2006):
Where no end group is shown, it is not given here.

Tests used:
Lck-SH3 [1] = molecular target: T1, Lck-SH3 (Homo sapiens, UniProt P06239); test: PepSpot membrane substitution analysis, relative Lck binding activity; details: 7 of 12 positions of PD1-R substituted, 0,5 µg/ml SH3 protein, Fig. 4
T1 construct: Inkubation der Membran mit dem zu untersuchenden Protein (hier Lck-SH3); made in house
Description: Eine andere Methode, Protein-Protein-Wechselwirkungen zu untersuchen, ist die Benutzung so genannter PepSpot-Membranen. Sie basiert auf der Synthese von immobilisierten Peptiden auf aktivierten Membrane und kann z. B. zur Optimierung der Bindungseigenschaften bereits identifizierter Liganden durch Substitutionsanalyse verwendet werden. Nach der Inkubation der Membran mit dem zu untersuchenden Protein (hier Lck-SH3) und der anschließenden Detektion wird anhand der Spotfärbung eine Interaktion des Proteins mit den entsprechenden immobilisierten Peptiden nachgewiesen. Die Stärke der Spotintensitäten ist ein Maß für die Stärke der Bindung. Eine zusammenfassende Übersicht findet sich bei Reinecke U., Volkmer-Engert R., Schneider-Mergener J. Applikation of peptide arrays prepared by the SPOT-technology. Current Opinion in Biotechnology 2001, 12:59-64.
Für den Immunoassay wurde die PepSpot-Membran über Nacht in 20 ml Blocking Puffer geblockt. Nach einmaligem Waschen mit T-TBS für 10 min wurde die Membran für 3 h mit 0,5 µg/ml SH3 Protein in 20 ml Blocking Puffer inkubiert. Danach wurde die Membran dreimal für je 10 min mit T-TB S gewaschen. […] Die Spot-Intensitäten wurden mit der QuantityOne Software (Bio-Rad, München) ausgewertet Die Analyse der Spot-Intensitäten erfolgte nach Subtraktion des Hintergrundes. […]

Lck-SH3 [2] = molecular target: T1, Lck-SH3; test: Fluorescence titration (intrinsic tryptophan fluorescence), binding constant; details: Lck SH3 domain; fluorescence titration, 0,5 µM free SH3 domain in PBS, 1mM DDT; each experiment done twice
Description: (§1) Die Messungen wurden im Wesentlichen wie bei Schweimer K, Hoffmann S, Bauer F, Friedrich U, Kardinal C, Feller SM, Biesinger B, Sticht H. Structural investigation of the bindung of a herpesviral protein to the SH3 domain of tyrosine kinase Lck. Biochemistry. 2002 Apr 23;41(16):5120-30 beschrieben unter Verwendung eines Perkin-Elmer LS 55 Fluoreszenzspektrometers bei einer Anregungswellenlänge von 290 nm und einer Emissionswellenlänge von 345 nm durchgeführt. […] Nach PD1-Zugabe wurde jeweils die resultierende Fluoreszenzänderung aufgezeichnet. Durch eine Kontrolltitration (Hintergrundmessung), bei welcher die Peptidlösung gegen Wasser ersetzt wurde, konnten die Abweichungen der Fluoreszenzweite, welche durch eine sinkende SH3-Endkonzentration während der Titration hervorgerufen wurden, ausgeglichen werden. […] F = Fmin + (([Pges] + [Lges] + Kd)/(2)-sqrt(((([Pges]+[Lges]+Kd))^2)/(4)-[Pges]*[Lges]))*((Fmax-Fmin))/(Pges) [formula]
(§2) Durch nichtlineare Regression mit Fmax und Kd als angepasste Parameter konnten die experimentellen Daten an obige Gleichung angepasst werden.

PI3K SH3 Domäne = PI3K SH3 Domäne (Homo sapiens, UniProt P27986); test: as above; details: PI3K SH3 domain; fluorescence titration, 0,5 µM SH3 domain in PBS, 1mM DDT; each experiment done twice
Description: as §1, §2

Abl SH3 Domäne = Abl SH3 Domäne (Homo sapiens, UniProt P00519); test: as above; details: Abl SH3 domain; fluorescence titration, 0,5 µM SH3 domain in PBS, 1mM DDT; each experiment done twice
Description: as §1, §2

Hck-SH3 = Hck-SH3 (Homo sapiens, UniProt P08631); test: as above; details: Hck SH3 domain; fluorescence titration, 0,5 µM SH3 domain in PBS, 1mM DDT; each experiment done twice
Description: as §1, §2

GST-Lck-SH3 = molecular target: T2, GST-Lck-SH3 (Homo sapiens, UniProt P06239); test: anti-Phage-ELISA, relative Lck-SH3 binding activity of phage clones; details: phage-displayed peptide; detection at 450 nm; Fig. 1; 7 single experiments
T2 construct: rekombinant hergestellte Lck SH3 als Fusion mit Glutathion-S-Transferase (GST-Lck-SH3); made in house
Description: Dieser Bindungstest ist ein häufig verwendeter Test zur schnellen Bestimmung relativer Bindungsstarken selektierter Peptide, die hierbei noch physikalisch mit dem Phagen verknüpft vorliegen. Dieser Schritt dient auch zur Eliminierung von (bei dieser Methode nicht selten auftretenden) Phagenvarianten, die z. B. aufgrund ihrer Affinität zur Plastikoberfläche der verwendeten Mikrotiterplatten, angereichert werden und die somit zur Verfälschung der Ergebnisse führen können. Eine grundsätzliche Beschreibung der Methode findet sich z. B. unter Sparks et al. Methods Enzymol. 1995; 255:498-509.
GST-Lck-SH3 Protein wurde in einer Konzentration von 10 µg/ml in Tris-Bis über Nacht bei 4°C in Mikrotiterplatten immobilisiert. Verbleibende Bindungsstellen wurden durch 2-stündige Inkubation mit Blockierungspuffer (Bis-Tris mit 2.% Magermilchpulver) abgesättigt.
In einer anderen Mikrotiterplatte wurden zuerst je 100 µl Suspension der zu testenden Phagenvariante mit 100 µl Blockierungspuffer für 20 Minuten vorinkubiert und erst dann für 1 Stunde zum immobilisierten GST-Lck-SH3 Protein gegeben. Nach einem Waschschritt mit Bis-Tris wurde ein Meerrettich-Peroxidase-konjugierter Antikörper zugegeben und die Platten für eine weitere Stunde inkubiert. […]

T1 sequence (P06239 61-121 limits assumed): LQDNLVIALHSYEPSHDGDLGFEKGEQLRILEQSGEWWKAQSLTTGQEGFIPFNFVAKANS
Sequence of Hck-SH3 (P08631 78-138 limits assumed): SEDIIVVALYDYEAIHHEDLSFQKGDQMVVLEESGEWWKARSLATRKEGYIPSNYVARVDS
Sequence of PI3K SH3 Domäne (P27986 3-79 limits assumed): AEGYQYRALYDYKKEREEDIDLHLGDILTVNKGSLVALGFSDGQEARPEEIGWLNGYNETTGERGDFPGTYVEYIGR
Sequence of Abl SH3 Domäne (P00519 61-121 limits assumed): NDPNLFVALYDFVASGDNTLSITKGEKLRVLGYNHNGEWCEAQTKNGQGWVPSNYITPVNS
T2 sequence (P06239 61-121 limits assumed): as the sequence (P06239 61-121 limits assumed) above

Sequence	Bindung an die Lck-SH3 (Spot-Intensität) (Lck-SH3 [1])	Kd (Lck-SH3 [2])	Kd (PI3K SH3 Domäne)	Kd (Abl SH3 Domäne)	Kd (Hck-SH3)	relative Lck-SH3-Bindungsaktivität (GST-Lck-SH3)
HFKRPLPPLPSL [PD1-R(-5)F, substitution variant of PD1-R found on PepSpot membrane]	stärkste Bindung					
HSKRPLPPLPSL [PD1-R]		23.1 ± 1.97 µM	13.1 ± 0.48 µM	> 300 µM	0.47 ± 0.02 µM	
HTLQIPQHATSF						nicht bindende
HSKYPLPPLPSL [PD1]		48.7 ± 1.65 µM	112 ± 10.1 µM	> 300 µM	0.23 ± 0.03 µM	
